ChEMBL document CHEMBL5465560, “Selectivity Literature for EUbOPEN Chemogenomic Library” (2024)

Columns and labels:
[1] = target: Serine/threonine-protein kinase N1 (Homo sapiens, UniProt Q16512); test: Selectivity interaction (KinomeScan (DiscoverX)) EUB0000618a PKN1; conditions: at 10 µM
[2] = target: Angiopoietin-1 receptor (Homo sapiens) (UniProt Q02763); test: Selectivity interaction (KinomeScan (DiscoverX)) EUB0000595a TEK; conditions: at 10 µM
[3] = target: T1, Mitogen-activated protein kinase kinase kinase kinase 3 (Homo sapiens) (UniProt Q8IVH8); conditions: at 10 µM
T1 sequence (whole entry): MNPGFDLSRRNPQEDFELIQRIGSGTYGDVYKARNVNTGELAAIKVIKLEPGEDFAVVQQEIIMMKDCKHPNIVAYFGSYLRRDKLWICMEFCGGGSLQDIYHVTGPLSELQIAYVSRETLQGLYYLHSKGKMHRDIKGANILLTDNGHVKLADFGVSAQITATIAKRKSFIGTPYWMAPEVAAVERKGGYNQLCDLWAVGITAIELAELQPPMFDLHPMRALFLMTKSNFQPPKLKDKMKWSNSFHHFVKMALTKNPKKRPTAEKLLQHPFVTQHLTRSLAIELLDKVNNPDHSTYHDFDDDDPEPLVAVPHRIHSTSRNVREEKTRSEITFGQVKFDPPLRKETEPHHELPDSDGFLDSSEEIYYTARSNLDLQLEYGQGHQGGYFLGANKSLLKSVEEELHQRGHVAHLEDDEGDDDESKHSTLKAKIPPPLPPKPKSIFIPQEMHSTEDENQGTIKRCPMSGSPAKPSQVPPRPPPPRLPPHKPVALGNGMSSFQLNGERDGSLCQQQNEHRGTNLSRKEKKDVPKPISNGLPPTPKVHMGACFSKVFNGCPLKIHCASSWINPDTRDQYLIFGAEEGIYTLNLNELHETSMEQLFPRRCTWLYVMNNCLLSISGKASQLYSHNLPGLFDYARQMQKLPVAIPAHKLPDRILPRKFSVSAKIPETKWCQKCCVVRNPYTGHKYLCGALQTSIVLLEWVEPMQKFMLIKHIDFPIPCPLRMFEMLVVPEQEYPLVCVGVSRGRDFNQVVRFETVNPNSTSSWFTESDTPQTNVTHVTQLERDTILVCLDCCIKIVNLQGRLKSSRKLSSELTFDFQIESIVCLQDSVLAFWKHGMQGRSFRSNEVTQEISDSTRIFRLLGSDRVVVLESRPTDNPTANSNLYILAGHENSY

[4] = target: T2, Myosin light chain kinase family member 4 (Homo sapiens) (UniProt Q86YV6); conditions: at 10 µM
T2 sequence (whole entry): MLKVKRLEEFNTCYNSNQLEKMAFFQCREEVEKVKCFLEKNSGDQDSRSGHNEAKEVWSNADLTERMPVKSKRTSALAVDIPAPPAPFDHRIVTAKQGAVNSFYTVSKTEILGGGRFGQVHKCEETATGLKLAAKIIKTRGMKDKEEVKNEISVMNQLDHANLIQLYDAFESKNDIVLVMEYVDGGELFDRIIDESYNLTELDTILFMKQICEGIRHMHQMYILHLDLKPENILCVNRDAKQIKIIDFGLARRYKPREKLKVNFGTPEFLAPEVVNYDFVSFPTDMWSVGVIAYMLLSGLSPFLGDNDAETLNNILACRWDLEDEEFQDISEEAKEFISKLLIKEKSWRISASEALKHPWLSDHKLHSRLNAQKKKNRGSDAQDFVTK

SRSF protein kinase 1 = SRSF protein kinase 1 (Homo sapiens, UniProt Q96SB4); test: Selectivity interaction (ActivX KiNativ screen (kinase selectivity in THP-1 cell lysates)) EUB0000639a SRPK1; assay type: subcellular; conditions: lysate, at 0.04 µM
Chain of SRSF protein kinase 1 (Q96SB4 whole entry): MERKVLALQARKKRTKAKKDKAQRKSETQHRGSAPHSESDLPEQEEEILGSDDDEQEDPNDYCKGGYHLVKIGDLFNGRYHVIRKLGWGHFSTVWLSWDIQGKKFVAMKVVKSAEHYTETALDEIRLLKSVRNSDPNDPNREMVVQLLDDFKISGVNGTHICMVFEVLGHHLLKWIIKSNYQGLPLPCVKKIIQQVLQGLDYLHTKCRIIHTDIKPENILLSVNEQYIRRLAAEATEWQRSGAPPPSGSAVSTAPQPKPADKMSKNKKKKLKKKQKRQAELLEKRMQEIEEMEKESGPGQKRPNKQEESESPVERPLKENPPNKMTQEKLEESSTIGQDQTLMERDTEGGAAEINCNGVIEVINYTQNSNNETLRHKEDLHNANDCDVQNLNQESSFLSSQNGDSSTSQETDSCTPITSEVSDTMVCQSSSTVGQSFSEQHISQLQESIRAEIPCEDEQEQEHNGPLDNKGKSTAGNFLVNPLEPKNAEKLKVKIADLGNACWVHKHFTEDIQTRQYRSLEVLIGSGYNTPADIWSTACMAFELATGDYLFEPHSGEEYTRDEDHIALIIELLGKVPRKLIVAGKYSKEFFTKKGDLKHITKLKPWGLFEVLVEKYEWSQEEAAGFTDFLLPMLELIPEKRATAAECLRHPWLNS

[5] = target: Non-receptor tyrosine-protein kinase TYK2 (Homo sapiens, UniProt P29597); test: Selectivity interaction (Kinase panel (Invitrogen)) EUB0000639a TYK2; conditions: at 200 nM
Chain of Non-receptor tyrosine-protein kinase TYK2 (P29597 whole entry): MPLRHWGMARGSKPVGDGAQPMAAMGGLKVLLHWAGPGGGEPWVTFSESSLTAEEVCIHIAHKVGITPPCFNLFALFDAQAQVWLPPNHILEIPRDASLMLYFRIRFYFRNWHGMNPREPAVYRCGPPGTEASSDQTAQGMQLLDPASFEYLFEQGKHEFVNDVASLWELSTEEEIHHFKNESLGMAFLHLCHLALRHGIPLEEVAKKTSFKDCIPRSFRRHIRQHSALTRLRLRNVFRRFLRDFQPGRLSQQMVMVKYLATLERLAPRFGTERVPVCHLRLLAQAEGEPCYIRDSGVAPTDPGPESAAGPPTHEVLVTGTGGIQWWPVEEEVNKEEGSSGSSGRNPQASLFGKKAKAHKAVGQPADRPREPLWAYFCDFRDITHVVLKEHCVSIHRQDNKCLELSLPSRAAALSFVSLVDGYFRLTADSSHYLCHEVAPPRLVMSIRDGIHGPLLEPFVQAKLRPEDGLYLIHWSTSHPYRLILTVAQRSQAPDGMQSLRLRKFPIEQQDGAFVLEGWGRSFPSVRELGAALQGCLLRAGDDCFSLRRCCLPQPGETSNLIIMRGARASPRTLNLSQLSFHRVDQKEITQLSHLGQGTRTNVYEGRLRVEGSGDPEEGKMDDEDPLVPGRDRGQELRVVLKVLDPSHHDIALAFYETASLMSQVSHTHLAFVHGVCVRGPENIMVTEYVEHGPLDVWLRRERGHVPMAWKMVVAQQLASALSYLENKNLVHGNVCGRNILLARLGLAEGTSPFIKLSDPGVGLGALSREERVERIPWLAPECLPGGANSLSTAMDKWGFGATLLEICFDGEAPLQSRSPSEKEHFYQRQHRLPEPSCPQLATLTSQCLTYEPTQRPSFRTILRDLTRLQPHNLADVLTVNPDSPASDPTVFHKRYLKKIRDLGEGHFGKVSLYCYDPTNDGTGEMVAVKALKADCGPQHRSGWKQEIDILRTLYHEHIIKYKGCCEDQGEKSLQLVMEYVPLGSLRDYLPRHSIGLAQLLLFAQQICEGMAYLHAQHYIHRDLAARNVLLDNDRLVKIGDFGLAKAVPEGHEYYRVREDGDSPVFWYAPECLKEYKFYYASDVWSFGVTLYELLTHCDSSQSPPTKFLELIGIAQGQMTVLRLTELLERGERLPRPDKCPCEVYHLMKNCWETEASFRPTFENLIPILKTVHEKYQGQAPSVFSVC

[6] = target: Receptor-type tyrosine-protein kinase FLT3 (Homo sapiens) (UniProt P36888); test: Selectivity interaction (ProQinase) EUB0000171b FLT3
Chain of Receptor-type tyrosine-protein kinase FLT3 (Homo sapiens) (P36888 whole entry): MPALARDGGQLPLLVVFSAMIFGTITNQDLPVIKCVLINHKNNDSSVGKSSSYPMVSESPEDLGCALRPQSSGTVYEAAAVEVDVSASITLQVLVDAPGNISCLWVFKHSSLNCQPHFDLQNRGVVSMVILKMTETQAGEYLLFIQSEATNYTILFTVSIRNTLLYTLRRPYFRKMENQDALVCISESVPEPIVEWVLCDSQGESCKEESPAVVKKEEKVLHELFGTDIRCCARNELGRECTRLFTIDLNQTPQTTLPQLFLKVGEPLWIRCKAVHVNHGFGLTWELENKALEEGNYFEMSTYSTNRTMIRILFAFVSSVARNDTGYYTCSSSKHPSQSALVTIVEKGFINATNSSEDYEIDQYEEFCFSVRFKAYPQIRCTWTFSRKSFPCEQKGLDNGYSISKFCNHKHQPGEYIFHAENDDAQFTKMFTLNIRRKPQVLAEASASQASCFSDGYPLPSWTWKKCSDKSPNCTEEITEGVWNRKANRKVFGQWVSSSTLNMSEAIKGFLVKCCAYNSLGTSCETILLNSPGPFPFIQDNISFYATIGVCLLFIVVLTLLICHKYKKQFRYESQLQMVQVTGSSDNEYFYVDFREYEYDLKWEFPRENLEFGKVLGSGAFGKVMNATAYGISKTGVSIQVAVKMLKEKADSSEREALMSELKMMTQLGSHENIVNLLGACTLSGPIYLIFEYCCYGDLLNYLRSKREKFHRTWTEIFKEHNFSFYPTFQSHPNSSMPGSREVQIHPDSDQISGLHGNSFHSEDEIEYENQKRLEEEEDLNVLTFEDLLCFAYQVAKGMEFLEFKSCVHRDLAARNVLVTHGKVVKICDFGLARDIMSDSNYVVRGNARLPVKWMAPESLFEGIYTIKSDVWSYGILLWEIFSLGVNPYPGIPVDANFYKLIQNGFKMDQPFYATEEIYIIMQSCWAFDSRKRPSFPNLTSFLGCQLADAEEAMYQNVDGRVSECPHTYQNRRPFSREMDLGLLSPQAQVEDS

[7] = target: T3, NUAK family SNF1-like kinase 1 (Homo sapiens) (UniProt O60285); test: Selectivity interaction (KinomeScan (DiscoverX)) EUB0000092b NUAK1; conditions: at 10 µM
T3 sequence (whole entry): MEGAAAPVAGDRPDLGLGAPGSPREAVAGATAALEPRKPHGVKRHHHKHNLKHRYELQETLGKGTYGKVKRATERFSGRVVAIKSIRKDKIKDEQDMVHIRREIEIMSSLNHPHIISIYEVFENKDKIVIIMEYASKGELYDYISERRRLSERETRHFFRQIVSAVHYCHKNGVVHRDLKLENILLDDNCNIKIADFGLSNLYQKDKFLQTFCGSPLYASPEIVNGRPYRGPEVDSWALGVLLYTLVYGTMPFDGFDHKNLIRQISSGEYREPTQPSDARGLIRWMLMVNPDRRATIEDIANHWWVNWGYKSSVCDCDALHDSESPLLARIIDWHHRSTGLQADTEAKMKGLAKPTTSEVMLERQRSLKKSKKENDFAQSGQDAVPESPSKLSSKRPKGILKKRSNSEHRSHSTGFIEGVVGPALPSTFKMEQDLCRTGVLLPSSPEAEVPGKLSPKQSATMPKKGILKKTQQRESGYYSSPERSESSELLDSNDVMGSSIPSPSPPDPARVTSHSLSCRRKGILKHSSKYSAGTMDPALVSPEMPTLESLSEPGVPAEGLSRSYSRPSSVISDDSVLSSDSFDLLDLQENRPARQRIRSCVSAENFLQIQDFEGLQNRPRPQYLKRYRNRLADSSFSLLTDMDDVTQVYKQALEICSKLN

[8] = target: Dual specificity mitogen-activated protein kinase kinase 2 (Homo sapiens) (UniProt P36507); test: Selectivity interaction (KinomeScan (DiscoverX)) EUB0000092b MAP2K2; conditions: at 10 µM
Chain of Dual specificity mitogen-activated protein kinase kinase 2 (Homo sapiens) (P36507 whole entry): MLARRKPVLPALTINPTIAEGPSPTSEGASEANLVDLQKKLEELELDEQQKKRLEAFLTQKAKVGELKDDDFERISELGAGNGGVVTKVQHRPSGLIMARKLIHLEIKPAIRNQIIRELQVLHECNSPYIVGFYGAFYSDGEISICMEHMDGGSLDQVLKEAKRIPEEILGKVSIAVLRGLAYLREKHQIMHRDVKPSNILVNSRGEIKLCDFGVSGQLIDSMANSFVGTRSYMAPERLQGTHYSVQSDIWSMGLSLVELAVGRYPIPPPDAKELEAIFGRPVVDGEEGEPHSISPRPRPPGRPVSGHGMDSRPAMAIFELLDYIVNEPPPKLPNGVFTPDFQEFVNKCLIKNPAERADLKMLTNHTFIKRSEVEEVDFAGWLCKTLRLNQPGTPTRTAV

Chain of Angiopoietin-1 receptor (Homo sapiens) (Q02763 whole entry): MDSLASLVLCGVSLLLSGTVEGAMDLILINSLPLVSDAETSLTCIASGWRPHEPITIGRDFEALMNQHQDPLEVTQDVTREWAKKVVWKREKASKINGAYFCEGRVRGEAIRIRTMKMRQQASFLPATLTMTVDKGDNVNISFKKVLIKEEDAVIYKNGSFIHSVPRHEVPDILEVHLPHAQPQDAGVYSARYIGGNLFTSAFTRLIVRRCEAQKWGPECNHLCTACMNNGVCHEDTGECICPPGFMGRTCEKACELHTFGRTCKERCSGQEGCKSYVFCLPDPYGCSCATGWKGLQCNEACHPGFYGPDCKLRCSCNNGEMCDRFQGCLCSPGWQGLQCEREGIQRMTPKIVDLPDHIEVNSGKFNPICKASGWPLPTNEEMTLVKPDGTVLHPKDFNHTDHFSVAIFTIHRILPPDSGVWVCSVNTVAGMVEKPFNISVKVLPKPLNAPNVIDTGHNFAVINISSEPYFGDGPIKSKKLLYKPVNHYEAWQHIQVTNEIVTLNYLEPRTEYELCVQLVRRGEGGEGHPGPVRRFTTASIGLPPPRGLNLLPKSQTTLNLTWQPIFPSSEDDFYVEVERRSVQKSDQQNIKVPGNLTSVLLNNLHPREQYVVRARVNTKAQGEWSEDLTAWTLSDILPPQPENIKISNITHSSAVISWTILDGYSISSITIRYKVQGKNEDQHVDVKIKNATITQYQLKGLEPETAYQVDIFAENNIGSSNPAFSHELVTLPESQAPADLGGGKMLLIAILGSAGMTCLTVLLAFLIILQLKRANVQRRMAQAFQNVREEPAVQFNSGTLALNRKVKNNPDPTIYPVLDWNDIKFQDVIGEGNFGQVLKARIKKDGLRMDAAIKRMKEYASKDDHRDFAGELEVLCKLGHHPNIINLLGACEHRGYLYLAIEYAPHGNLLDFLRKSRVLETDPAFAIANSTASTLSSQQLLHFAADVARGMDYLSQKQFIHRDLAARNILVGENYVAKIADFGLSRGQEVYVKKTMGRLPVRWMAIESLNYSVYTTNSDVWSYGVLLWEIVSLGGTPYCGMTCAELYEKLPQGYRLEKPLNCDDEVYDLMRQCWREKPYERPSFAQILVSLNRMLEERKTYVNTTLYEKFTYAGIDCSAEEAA

Question: With O[C@H]1CC[C@H](Nc2ncc3nc(Nc4c(F)cc(F)cc4F)n([C@H]4CCOC4)c3n2)CC1 as the compound, how does the % of control [1] read?
Answer: 91%

Question: COCC(=O)NC/C=C/c1ccc2ncnc(Nc3ccc(Oc4ccc(C)nc4)c(C)c3)c2c1 [CP-724714] was tested. Which % of control [2] did it give?
Answer: 100%

Question: With Cc1cc([C@@H](C)Nc2ccccc2C(=O)O)c2nc(N3CCOCC3)cc(=O)n2c1 [AZD-6482] as the compound, how does the % of control [3] read?
Answer: 88%

Question: And the % of control [4]?
Answer: 98%

Question: CC[C@@H]1[C@H](F)C(=O)N[C@@H]1COc1nccc2cc(C(N)=O)c(OC)cc12 [ZIMLOVISERTIB] was tested. Which % of inhibition (SRSF protein kinase 1) did it give?
Answer: 6%

Question: And the % of inhibition [5]?
Answer: 5.13%

Question: Which results are given for C=CC(=O)Nc1cccc(C(=O)Nc2ccc(Nc3cc(-c4[nH]c(SC)nc4C)ccn3)cc2)c1?
Answer: % of control ([6]; at 1 µM): 78%; % of control ([6]; at 5 µM): 49%

Question: Which % of control [7] does the source give for CCC(=O)N1CCN(c2ccc(-n3c(=O)ccc4cnc5ccc(-c6cnc7ccccc7c6)cc5c43)cc2C(F)(F)F)CC1 here?
Answer: 100%

Question: And the % of control [8]?
Answer: 100%
